Key:
[1] = molecular target: T1, Mitogen-activated protein kinase kinase kinase 6 (Homo sapiens) (UniProt O95382); assay: Selectivity interaction (KinomeScan (DiscoverX)) EUB0001049a MAP3K6; details: at 1 µM
T1 sequence (whole entry): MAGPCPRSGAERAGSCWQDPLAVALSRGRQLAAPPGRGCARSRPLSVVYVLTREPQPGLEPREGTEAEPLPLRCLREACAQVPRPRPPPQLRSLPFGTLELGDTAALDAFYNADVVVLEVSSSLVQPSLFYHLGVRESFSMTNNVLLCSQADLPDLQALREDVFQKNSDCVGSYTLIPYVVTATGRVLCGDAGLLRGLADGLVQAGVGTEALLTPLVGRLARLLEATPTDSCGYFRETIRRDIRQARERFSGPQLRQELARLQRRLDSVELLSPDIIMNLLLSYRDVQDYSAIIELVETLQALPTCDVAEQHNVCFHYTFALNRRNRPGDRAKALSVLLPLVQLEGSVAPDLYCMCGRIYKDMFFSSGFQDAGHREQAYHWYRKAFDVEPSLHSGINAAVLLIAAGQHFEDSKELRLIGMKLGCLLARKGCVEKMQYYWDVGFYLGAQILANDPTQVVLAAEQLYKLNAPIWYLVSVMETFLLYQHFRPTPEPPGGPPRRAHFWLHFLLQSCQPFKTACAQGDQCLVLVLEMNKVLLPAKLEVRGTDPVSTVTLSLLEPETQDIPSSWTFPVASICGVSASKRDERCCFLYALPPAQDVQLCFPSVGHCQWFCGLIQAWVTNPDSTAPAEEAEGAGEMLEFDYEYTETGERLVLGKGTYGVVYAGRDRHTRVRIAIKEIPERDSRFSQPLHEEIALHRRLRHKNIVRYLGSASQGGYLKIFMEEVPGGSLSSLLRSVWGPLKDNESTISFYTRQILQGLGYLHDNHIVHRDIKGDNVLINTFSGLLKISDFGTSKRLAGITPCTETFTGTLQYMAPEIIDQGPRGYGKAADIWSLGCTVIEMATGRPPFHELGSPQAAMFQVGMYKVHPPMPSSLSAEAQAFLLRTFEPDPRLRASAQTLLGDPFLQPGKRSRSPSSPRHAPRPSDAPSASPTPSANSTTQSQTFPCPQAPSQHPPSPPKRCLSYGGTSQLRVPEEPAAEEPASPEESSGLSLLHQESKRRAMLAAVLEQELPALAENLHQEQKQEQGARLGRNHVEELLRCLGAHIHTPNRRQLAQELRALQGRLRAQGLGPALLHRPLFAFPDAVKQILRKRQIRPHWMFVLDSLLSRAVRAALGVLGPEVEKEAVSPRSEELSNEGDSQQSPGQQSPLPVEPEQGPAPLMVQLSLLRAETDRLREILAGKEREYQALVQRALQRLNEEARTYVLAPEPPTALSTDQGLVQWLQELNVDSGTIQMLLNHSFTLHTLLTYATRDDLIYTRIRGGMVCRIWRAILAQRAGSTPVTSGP

[2] = molecular target: T2, Serine/threonine-protein kinase Nek5 (Homo sapiens) (UniProt Q6P3R8); assay: Selectivity interaction (KinomeScan (DiscoverX)) EUB0000655a NEK5; details: at 10 µM
T2 sequence (whole entry): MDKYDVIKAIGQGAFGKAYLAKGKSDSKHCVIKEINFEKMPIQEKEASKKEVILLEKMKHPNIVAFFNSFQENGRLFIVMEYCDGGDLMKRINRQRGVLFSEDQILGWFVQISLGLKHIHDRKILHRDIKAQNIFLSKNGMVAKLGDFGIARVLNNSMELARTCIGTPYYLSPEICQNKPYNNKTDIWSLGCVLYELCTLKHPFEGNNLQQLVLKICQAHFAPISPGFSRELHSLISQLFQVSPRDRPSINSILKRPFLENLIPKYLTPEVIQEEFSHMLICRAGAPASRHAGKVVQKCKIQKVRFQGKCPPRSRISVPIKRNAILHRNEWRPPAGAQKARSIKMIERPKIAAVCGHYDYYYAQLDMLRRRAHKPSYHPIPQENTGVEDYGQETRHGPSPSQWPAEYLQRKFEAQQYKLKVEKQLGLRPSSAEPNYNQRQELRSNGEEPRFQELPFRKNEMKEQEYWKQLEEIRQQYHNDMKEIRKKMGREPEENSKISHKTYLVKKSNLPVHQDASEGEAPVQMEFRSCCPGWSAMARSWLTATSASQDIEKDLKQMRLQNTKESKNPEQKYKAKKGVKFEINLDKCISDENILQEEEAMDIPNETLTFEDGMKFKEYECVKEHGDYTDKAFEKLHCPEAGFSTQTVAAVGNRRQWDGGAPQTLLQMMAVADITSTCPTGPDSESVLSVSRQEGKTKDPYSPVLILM

[3] = molecular target: T3, Cyclin-dependent kinase-like 2 (Homo sapiens) (UniProt Q92772); assay: Selectivity interaction (KinomeScan (DiscoverX)) EUB0000092b CDKL2; details: at 10 µM
T3 sequence (whole entry): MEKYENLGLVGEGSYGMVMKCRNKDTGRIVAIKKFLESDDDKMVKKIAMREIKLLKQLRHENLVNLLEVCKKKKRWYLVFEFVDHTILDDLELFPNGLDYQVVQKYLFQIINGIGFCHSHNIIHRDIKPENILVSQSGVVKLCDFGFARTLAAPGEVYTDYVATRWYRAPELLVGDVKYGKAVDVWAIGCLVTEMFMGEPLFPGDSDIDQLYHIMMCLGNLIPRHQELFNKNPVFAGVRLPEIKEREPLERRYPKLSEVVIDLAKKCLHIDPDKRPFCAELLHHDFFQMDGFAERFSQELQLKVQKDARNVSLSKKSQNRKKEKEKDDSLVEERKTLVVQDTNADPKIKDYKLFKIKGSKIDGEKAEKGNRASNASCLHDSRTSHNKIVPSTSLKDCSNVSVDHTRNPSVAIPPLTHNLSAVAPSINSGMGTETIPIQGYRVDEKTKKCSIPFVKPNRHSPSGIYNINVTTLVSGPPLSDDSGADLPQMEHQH

Question: Which % of control [1] does the source give for `COc1cc(Nc2nc(C)cc(-c3cnn4nc(OC)ccc34)n2)cc(C(F)(F)F)c1` here?
Answer: 66%

Question: How did the % of control [2] turn out when `CN(C)CCOc1ccc(-c2nc(-c3ccncc3)c(-c3ccc4c(c3)CC/C4=N\O)[nH]2)cc1` was run?
Answer: 74%

Question: Which % of control [3] does the source give for `CCC(=O)N1CCN(c2ccc(-n3c(=O)ccc4cnc5ccc(-c6cnc7ccccc7c6)cc5c43)cc2C(F)(F)F)CC1` here?
Answer: 58%

Source: ChEMBL document CHEMBL5465560, “Selectivity Literature for EUbOPEN Chemogenomic Library” (2024)
